Assays:
[1] = biological target: T1, mOat1 (Mus musculus, UniProt Q8VC69); assay: Two-point inhibition of mOat1-mediated PAH uptake in transfected HEK293 cells; format: in vitro ADME; settings: PAH 10 μM, 1 min
T1 construct: expressed in transfected cells; host or cells: HEK293
T1 sequence (Q8VC69 1-545): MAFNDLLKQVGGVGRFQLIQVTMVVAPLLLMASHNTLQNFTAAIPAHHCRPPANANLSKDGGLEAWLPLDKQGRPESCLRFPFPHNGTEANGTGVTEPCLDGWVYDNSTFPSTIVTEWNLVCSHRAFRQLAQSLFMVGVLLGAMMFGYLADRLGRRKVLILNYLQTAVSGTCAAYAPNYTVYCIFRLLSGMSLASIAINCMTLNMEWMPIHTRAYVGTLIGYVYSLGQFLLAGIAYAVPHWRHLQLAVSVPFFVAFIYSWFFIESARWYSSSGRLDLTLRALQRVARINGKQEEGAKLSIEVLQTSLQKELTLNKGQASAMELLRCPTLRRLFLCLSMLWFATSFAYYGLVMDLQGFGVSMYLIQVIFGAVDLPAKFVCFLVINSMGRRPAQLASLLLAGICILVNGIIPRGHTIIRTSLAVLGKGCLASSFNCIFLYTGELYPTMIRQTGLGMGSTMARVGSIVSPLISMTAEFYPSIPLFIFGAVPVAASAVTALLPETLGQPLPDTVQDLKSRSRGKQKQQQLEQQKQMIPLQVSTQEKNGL
Procedure: Well-characterized mOct1-, mOct2-, mOat1-, mOat2-, mOat3-, mMate1-, hOAT1-, hOAT3-, hOAT4-, hMRP2-, mMdr1a- and mMdr1b-transfected HEK293 cells and the respective vector-transfected control HEK293 cells were used.[42],[51],[52] All HEK293 cells (transporter-transfected and vector-transfected) were cultured in DMEM (Sigma, high glucose, 10% FBS, 1% penicillin (10,000 Units/mL)/streptomycin (10 mg/mL)) at 37°C under 5% CO2 in humidified atmosphere. The cells were routinely checked for the absence of mycoplasma infection. For the preparation of HEK293 cell monolayers, 24-well plates were pretreated with a poly-D-lysine hydrobromide solution (0.1 mg/mL). Each well was coated with 0.5 mL of poly-D-lysine solution and incubated for at least 15 min. After complete removal of the solution, the plates were dried for 30 min. Cells (vector-transfected and transporter-transfected) treated with trypsin were immediately seeded into 24-well plates and cultured for 3 days before being used for transport experiments.
For the uptake assay, the growth medium was aspirated, and each well was rinsed three times with 0.5 mL of incubation buffer (HBSS supplemented with 20 mM HEPES, pH 7.4) and incubated for 20 min at 37 °C. Afterward, buffers were removed, and 200 μL of the incubation buffer containing a radiolabeled substrate and the nonlabeled CHD and CDCHD or reference inhibitor (Table S1), respectively, was added to each well and incubated at 37 °C for designated time intervals. […] Cells were solubilized with 0.6 mL of 1N NaOH overnight and transferred into scintillation vials. ^3H and ^14C contents were measured after the addition of 2.5 mL of scintillator in a liquid scintillation counter.
The cellular protein amount was determined in parallel for each cell line (vector- and transporter-transfected) from six wells in a different 24-well reference plate using the Bradford method. […]
The inhibitory effect (I(%)) was calculated according to the formula: [drawing 5] […]

[2] = design: method as in PMID 339024; settings: phase II clinical trial, 1970s; cited from earlier work

For `CC(=O)C1=C(O)[C@@H](N)[C@H]2Cc3c(c(O)c4c(O)c(C)ccc4c3C)C(=O)[C@@]2(O)C1=O` [CHD, chelocardin], the “inhibitory effect on mOat1” value ([1]; 1 and 10 μM tested) was “less than 50%”, the “inhibitory effect on mOat1 (in words)” value ([1]; 1 and 10 μM) was “concentration-dependent inhibitory effects” and the inhibition at 10 µM ([1]; HEK293, at 10 μM, read-out: inhibitory effect on mOat1) was ~50%. The concentrations in urine [2] was 11000 to 14000 ng/mL and the plasma concentrations [2] was 1000 to 3000 ng/mL.

Reference: paper PMC11249637, “Interaction of the Atypical Tetracyclines Chelocardin and Amidochelocardin with Renal Drug Transporters” (ACS Pharmacology & Translational Science, 2024)
